Test results: ChEMBL document CHEMBL3603819, “Targeting zoonotic viruses: Structure-based inhibition of the 3C-like protease from bat coronavirus HKU4--The likely reservoir host to the human coronavirus that causes Middle East Respiratory Syndrome (MERS)” (Bioorg Med Chem, 2015)

Each compound was assayed on Tylonycteris bat coronavirus HKU4. Conditions: at 100 µM.

| Structure (SMILES) | inhibition [%] |
| --- | --- |
| CC(C)(C)NC(=O)C(c1ccsc1)N(C(=O)Cn1nnc2ccccc21)c1ccc(NC(=O)C2CCC2)cc1 (configuration not stated) | 20 |
| CC(C)(C)NC(=O)C(c1cccnc1)N(C(=O)c1ccsc1)c1ccc(C(C)(C)C)cc1 (configuration not stated) | 16 |
| CC(C)(C)NC(=O)C(c1ccsc1)N(C(=O)Cn1nnc2ccccc21)c1ccc(NC(=O)C(C)(C)C)cc1 (configuration not stated) | 18 |
| CC(C)c1ccc(N(C(=O)c2ccc(C(F)(F)F)nc2)C(C(=O)NC(C)(C)C)c2ccsc2)cc1 (configuration not stated) | 15 |
| CC(C)(C)NC(=O)C(c1ccsc1)N(C(=O)c1ccc(C(F)(F)F)cn1)c1ccc(OCF)cc1 (configuration not stated) | 18 |
| CC(C)(C)NC(=O)C(c1ccsc1)N(C(=O)Cn1nnc2ccccc21)c1ccc(N)cc1 (configuration not stated) | 64 |
| CC(C)(C)NC(=O)C(c1ccsc1)N(C(=O)Cc1c[nH]c2ccccc12)c1ccc(C(C)(C)C)cc1 (configuration not stated) | 31 |
| COCC(=O)Nc1ccc(N(Cc2ccsc2)C(=O)Cn2nnc3ccccc32)cc1 | 91 |
| CC(C)(C)NC(=O)C(c1cccnc1)N(C(=O)c1ccco1)c1ccc(-c2ccc(F)cc2F)cc1 (configuration not stated) | 16 |
| Cc1ccoc1C(=O)N(c1ccc(C(C)C)cc1)C(C(=O)NC(C)(C)C)c1cccnc1 (configuration not stated) | 36 |
| CC(C)(C)NC(=O)C(c1ccsc1)N(C(=O)Cn1nnc2ccccc21)c1ccc(NC(=O)c2cccs2)cc1 (configuration not stated) | 26 |
| CC(C)(C)NC(=O)C(c1ccsc1)N(C(=O)c1cccc2c1CCCC2)c1ccc(F)cc1 (configuration not stated) | 17 |
| CC(C)(C)NC(=O)C(c1cccnc1)N(C(=O)c1cccc2c1CCCC2)c1ccc(OCF)cc1 (configuration not stated) | 21 |
| Cc1nc2ccccc2n1CC(=O)N(c1ccc(NS(C)(=O)=O)cc1)C(C(=O)NC(C)(C)C)c1ccsc1 (configuration not stated) | 13 |
| Cc1nc2ccccc2n1CC(=O)N(c1ccc(N)cc1)C(C(=O)NC(C)(C)C)c1ccsc1 (configuration not stated) | 14 |
| O=C(Cn1nnc2ccccc21)N(Cc1ccsc1)c1ccc(-c2ccncc2)cc1 | 98 |
| CC(C)(C)NC(=O)C(c1cccnc1)N(C(=O)c1ccc(C(F)(F)F)nc1)c1ccc(OCF)cc1 (configuration not stated) | 15 |
| CC(C)(C)NC(=O)C(c1cccnc1)N(C(=O)c1cccnc1)c1ccc(C(C)(C)C)cc1 (configuration not stated) | 13 |
| CC(C)(C)NC(=O)C(c1ccsc1)N(C(=O)c1n[nH]c2ccccc12)c1ccc(OC(F)F)cc1 (configuration not stated) | 17 |
| CC(C)(C)c1ccc(N(Cc2cccnc2)C(=O)c2ccoc2)cc1 | 24 |
| CC(C)(C)NC(=O)C(c1ccsc1)N(C(=O)c1ccc(C#N)cc1)c1ccc(OCF)cc1 (configuration not stated) | 16 |
| CC(C)(C)NC(=O)C(c1cccnc1)N(C(=O)c1ccc(C#N)cc1)c1ccc(OCF)cc1 (configuration not stated) | 15 |

| Structure (SMILES) | inhibition [%] |
| --- | --- |
| CC(C)c1ccc(N(C(=O)c2ccco2)C(C(=O)NC(C)(C)C)c2cccnc2)cc1 (configuration not stated) | 34 |
| CC(C)c1ccc(N(C(=O)Cc2c[nH]c3ccccc23)C(C(=O)NC(C)(C)C)c2ccsc2)cc1 (configuration not stated) | 25 |
| CC(C)(C)NC(=O)C(c1cccnc1)N(C(=O)c1cc[nH]n1)c1ccc(C(C)(C)C)cc1 (stereo in doubt; 53B) | 28 |
| CC(=O)Nc1ccc(N(C(=O)Cn2cc([Si](C)(C)C)nn2)C(C(=O)NC(C)(C)C)c2ccsc2)cc1 (configuration not stated) | 20 |
| CC(C)(C)NC(=O)C(c1ccsc1)N(C(=O)Cc1cccc2ccccc12)C1CC1 (configuration not stated) | 22 |
| CC(C)(C)NC(=O)C(c1cncnc1)N(C(=O)c1ccco1)c1ccc(C(C)(C)C)cc1 (configuration not stated) | 16 |
| CC(C)(C)NC(=O)C(c1ccsc1)N(C(=O)c1ccco1)C1CC1 (configuration not stated) | 18 |
| Cc1ccc(C(C(=O)NC(C)(C)C)N(C(=O)c2ccco2)c2ccc(C(C)(C)C)cc2)cn1 (configuration not stated) | 8 |
| CC(C)(C)NC(=O)C(c1cccnc1)N(C(=O)c1ccc(C#N)cc1)C1CC1 (configuration not stated) | 23 |
| CC(C)(C)NC(=O)C(c1cccnc1)N(C(=O)Cc1cccnc1)c1ccc(OCF)cc1 (configuration not stated) | 18 |
| CC(C)C(=O)Nc1ccc(N(Cc2ccsc2)C(=O)Cn2cc(-c3ccccc3)nn2)cc1 | 25 |
| CC(C)(C)C(=O)Nc1ccc(N(Cc2ccsc2)C(=O)Cn2nnc3ccccc32)cc1 | 67 |
| CCC(C)Oc1ccc(N(C(=O)c2ccco2)C(C(=O)NC(C)(C)C)c2cccnc2)cc1 (configuration not stated) | 20 |
| CC(C)(C)OC(=O)n1cccc1-c1ccc(N(Cc2ccsc2)C(=O)Cn2nnc3ccccc32)cc1 | 31 |
| O=C(Nc1ccc(N(Cc2ccsc2)C(=O)Cn2nnc3ccccc32)cc1)C1CCCCC1 | 88 |
| CC(C)(C)NC(=O)C(c1cccnc1)N(C(=O)c1ccco1)c1ccc(-c2ccc(F)c(F)c2)cc1 (configuration not stated) | 12 |
| CC(C)(C)NC(=O)C(c1ccsc1)N(C(=O)Cn1nnc2ccccc21)c1ccc(NS(C)(=O)=O)cc1 (configuration not stated) | 27 |
| CC(C)(C)NC(=O)C(c1ccsc1)N(C(=O)Cc1cccnc1)c1ccc(C(C)(C)C)cc1 (configuration not stated) | 23 |
| CC(C)(C)NC(=O)C(c1ccsc1)N(C(=O)Cc1cccnc1)C1CC1 (configuration not stated) | 16 |
| CC(C)COC(=O)Nc1ccc(N(C(=O)Cn2nnc3ccccc32)C(C(=O)NC(C)(C)C)c2ccsc2)cc1 (configuration not stated) | 19 |
| CC(C)(C)NC(=O)C(c1cccnc1)N(C(=O)c1ccc(C#N)cc1)c1ccc(F)cc1 (configuration not stated) | 53 |
| CC(C)(C)NC(=O)C(c1ccsc1)N(C(=O)Cc1c[nH]c2ccccc12)C1CC1 (configuration not stated) | 17 |

| Structure (SMILES) | inhibition [%] |
| --- | --- |
| CC(C)(C)NC(=O)C(c1ccnnc1)N(C(=O)c1ccco1)c1ccc(C(C)(C)C)cc1 (configuration not stated) | 35 |
| CC(=O)Nc1ccc(N(C(=O)Cn2cc(-c3ccccc3)nn2)C(C(=O)NC(C)(C)C)c2ccsc2)cc1 (configuration not stated) | 19 |
| O=C(Cn1nnc2ccccc21)N(Cc1ccsc1)c1ccc(-c2cccnc2)cc1 | 90 |
| CC(C)(C)NC(=O)C(c1ccsc1)N(C(=O)c1cccc2c1CCCC2)c1ccc(C(C)(C)C)cc1 (configuration not stated) | 14 |
| CC(C)(C)NC(=O)C(c1cccnc1)N(C(=O)c1cc[nH]n1)c1ccc(C(C)(C)C)cc1 (stereo in doubt; 124B) | 17 |
| CC(C)(C)NC(=O)C(c1cccnc1)N(C(=O)c1ccc(C#N)cc1)c1ccc(C(C)(C)C)cc1 (configuration not stated) | 11 |
| CC(C)(C)NC(=O)C(c1cccnc1)N(C(=O)Cc1c[nH]c2ccccc12)c1ccc(F)cc1 (configuration not stated) | 41 |
| CC(C)(C)NC(=O)C(c1cccnc1)N(C(=O)c1ccc(C(F)(F)F)o1)c1ccc(C(C)(C)C)cc1 (configuration not stated) | 16 |
| CC(C)(C)NC(=O)C(c1ccsc1)N(C(=O)c1cccc2c1CCCC2)c1ccc(OCF)cc1 (configuration not stated) | 15 |
| CC(C)(C)NC(=O)C(c1ccsc1)N(C(=O)c1ccc(C(F)(F)F)nc1)C1CC1 (configuration not stated) | 12 |
| CC(C)(C)NC(=O)C(c1ccsc1)N(C(=O)Cn1nnc2ccccc21)c1ccc(NC(=O)c2ccno2)cc1 (configuration not stated) | 76 |
| CC(C)(C)NC(=O)C(c1cccnc1)N(C(=O)c1cccc2c1CCCC2)C1CC1 (configuration not stated) | 18 |
| O=C(Nc1ccc(N(C(=O)Cn2nnc3ccccc32)C(C(=O)NCc2ccccc2)c2cccc(F)c2)cc1)C1CC1 (configuration not stated) | 71 |
| CCC(=O)Nc1ccc(N(Cc2ccsc2)C(=O)Cn2nnc3ccccc32)cc1 | 92 |
| CC(C)(C)NC(=O)C(c1ccsc1)N(C(=O)c1ccc(C#N)cc1)c1ccc(C(C)(C)C)cc1 (configuration not stated) | 18 |
| CC(C)(C)NC(=O)C(c1cccnc1)N(C(=O)c1ccccc1O)c1ccc(C(C)(C)C)cc1 (configuration not stated) | 11 |
| CC(C)(C)NC(=O)C(c1ccsc1)N(C(=O)Cn1cnc2ccccc21)c1ccc(NS(C)(=O)=O)cc1 (configuration not stated) | 28 |
| CC(C)(C)NC(=O)C(c1cccnc1)N(C(=O)c1cnccn1)c1ccc(C(C)(C)C)cc1 (configuration not stated) | 41 |
| CC(C)C(=O)Nc1ccc(N(C(=O)Cn2nnc3ccccc32)C(C(=O)NCc2ccccc2)c2cccc(F)c2)cc1 (configuration not stated) | 62 |
| O=C(Cn1nnc2ccccc21)N(Cc1ccsc1)c1ccc(-c2ccccc2)cc1 | 21 |
| CC(C)(C)NC(=O)C(c1cccnc1)N(C(=O)c1ccco1)c1ccc(-c2ccccc2C#N)cc1 (configuration not stated) | 62 |
| CC(C)(C)NC(=O)C(c1ccsc1)N(C(=O)Cc1cccnc1)c1ccc(OCF)cc1 (configuration not stated) | 29 |

| Structure (SMILES) | inhibition [%] |
| --- | --- |
| CC(C)C(=O)Nc1ccc(N(C(=O)Cn2cnc3ccccc32)C(C(=O)NC(C)(C)C)c2ccsc2)cc1 (configuration not stated) | 56 |
| CC(C)(C)NC(=O)C(c1cccnc1)N(C(=O)c1n[nH]c2ccccc12)c1ccc(C(C)(C)C)cc1 (configuration not stated) | 23 |
| CC(=O)Nc1ccc(N(C(=O)Cn2nnc3ccccc32)C(C(=O)NC(C)(C)C)c2ccsc2)cc1 (configuration not stated) | 53 |
| CC(C)(C)NC(=O)C(c1ccsc1)N(C(=O)Cc1c[nH]c2ccccc12)c1ccc(F)cc1 (configuration not stated) | 22 |
| CC(C)(C)NC(=O)C(c1cccc(F)c1)N(C(=O)Cn1nnc2ccccc21)C12CC3CC(CC(C3)C1)C2 (configuration not stated) | 14 |
| COc1cccc(C(=O)N(c2ccc(C(C)(C)C)cc2)C(C(=O)NC(C)(C)C)c2cccnc2)c1 (configuration not stated) | 17 |
| CC(C)(C)NC(=O)C(c1cccnc1)N(C(=O)c1ccco1)C1CC2CCC1C2 (configuration not stated) | 16 |
| CCC(C)c1ccc(N(C(=O)c2ccco2)[C@H](C(=O)NC(C)(C)C)c2cccnc2)cc1 (some centres not stated) | 39 |
| CC(C)(C)NC(=O)[C@H](c1cccnc1)N(C(=O)c1ccco1)c1ccc(C(C)(C)C)cc1 | 65 |
| CC(C)(C)NC(=O)C(c1cccnc1)N(C(=O)c1cccc2c1CCCC2)c1ccc(C(C)(C)C)cc1 (configuration not stated) | 21 |
| CC(C)(C)NC(=O)C(c1cn[nH]c1)N(C(=O)c1ccco1)c1ccc(C(C)(C)C)cc1 (configuration not stated) | 12 |
| CC(C)(C)NC(=O)[C@@H](c1cccnc1)N(C(=O)c1c[nH]cn1)c1ccc(C(C)(C)C)cc1 | 93 |
| O=C(NCc1ccccc1)C(c1cccc(F)c1)N(C(=O)Cn1nnc2ccccc21)C12CC3CC(CC(C3)C1)C2 (configuration not stated) | 16 |
| CC(C)(C)NC(=O)C(c1cccnc1)N(C(=O)c1ncccn1)c1ccc(C(C)(C)C)cc1 (configuration not stated) | 13 |
| COc1ccccc1C(=O)N(c1ccc(C(C)(C)C)cc1)C(C(=O)NC(C)(C)C)c1cccnc1 (configuration not stated) | 17 |
| CC(C)(C)NC(=O)C(c1cccnc1)N(C(=O)c1ccco1)c1ccc(NS(C)(=O)=O)cc1 (configuration not stated) | 12 |
| CC(C)(C)NC(=O)C(c1cccnc1)N(C(=O)c1n[nH]c2ccccc12)c1ccc(F)cc1 (configuration not stated) | 14 |
| CC(C)C(=O)Nc1ccc(N(C(=O)Cn2nnc3ccccc32)C(C(=O)NC(C)(C)C)c2ccsc2)cc1 (configuration not stated) | 76 |
| CC(C)(C)NC(=O)C(c1ccsc1)N(C(=O)Cc1cccc2ccccc12)c1ccc(OCF)cc1 (configuration not stated) | 17 |
| CCC(=O)Nc1ccc(N(C(=O)Cn2ccnc2C)C(C(=O)NC(C)(C)C)c2ccsc2)cc1 (configuration not stated) | 19 |
| COc1ccc(C(=O)N(c2ccc(C(C)(C)C)cc2)C(C(=O)NC(C)(C)C)c2cccnc2)cc1 (configuration not stated) | 16 |
